# Measurements published in ChEMBL document CHEMBL1671662, “In vitro activities of telavancin and six comparator agents against anaerobic bacterial isolates” (2009).
# How the values were obtained:
# Type in all cases: functional
# Hoylesella oralis = experiment: Antibacterial activity against Prevotella oralis by CLSI M11-A6 agar dilution method
# [1] = test system: Peptostreptococcus anaerobius; experiment: Antibacterial activity against Peptostreptococcus anaerobius by CLSI M11-A6 agar dilution method
# Clostridium sporogenes = experiment: Antibacterial activity against Clostridium sporogenes by CLSI M11-A6 agar dilution method
# [2] = test system: Bifidobacterium pseudolongum; experiment: Antibacterial activity against Bifidobacterium pseudolongum by CLSI M11-A6 agar dilution method
# [3] = test system: Prevotella melaninogenica; experiment: Antibacterial activity against Prevotella melaninogenica by CLSI M11-A6 agar dilution method
# Blautia luti = experiment: Antibacterial activity against Ruminococcus luti by CLSI M11-A6 agar dilution method
# Prevotella oris = experiment: Antibacterial activity against Prevotella oris by CLSI M11-A6 agar dilution method; conditions: Segatella oris
# Prevotella bivia = experiment: Antibacterial activity against Prevotella bivia by CLSI M11-A6 agar dilution method
# Blautia producta = experiment: Antibacterial activity against Ruminococcus productus by CLSI M11-A6 agar dilution method
# Bacteroides fragilis = experiment: Antibacterial activity against Bacteroides fragilis by CLSI M11-A6 agar dilution method
# Anaerococcus prevotii = experiment: Antibacterial activity against Anaerococcus prevotii by CLSI M11-A6 agar dilution method
# Clostridium disporicum = experiment: Antibacterial activity against Clostridium disporicum by CLSI M11-A6 agar dilution method
# [4] = test system: Clostridium sporosphaeroides; experiment: Antibacterial activity against Clostridium sporosphaeroides by CLSI M11-A6 agar dilution method; conditions: Faecalispora sporosphaeroides
# [5] = test system: Peptoniphilus asaccharolyticus; experiment: Antibacterial activity against Peptoniphilus asaccharolyticus by CLSI M11-A6 agar dilution method
# Clostridium spiroforme = experiment: Antibacterial activity against Clostridium spiroforme by CLSI M11-A6 agar dilution method; conditions: Thomasclavelia spiroformis
# [6] = test system: Catenibacterium mitsuokai; experiment: Antibacterial activity against Catenibacterium mitsuokai by CLSI M11-A6 agar dilution method
# Eggerthella lenta = experiment: Antibacterial activity against Eggerthella lenta by CLSI M11-A6 agar dilution method
# Finegoldia magna = experiment: Antibacterial activity against Finegoldia magna by CLSI M11-A6 agar dilution method
# Coriobacterium = experiment: Antibacterial activity against […] by CLSI M11-A6 agar dilution method
# Ruminococcus gnavus = experiment: Antibacterial activity against Ruminococcus gnavus by CLSI M11-A6 agar dilution method; conditions: Mediterraneibacter gnavus
# Clostridium tertium = experiment: Antibacterial activity against Clostridium tertium by CLSI M11-A6 agar dilution method
# Clostridium bolteae = experiment: Antibacterial activity against Clostridium bolteae by CLSI M11-A6 agar dilution method; conditions: Enterocloster bolteae
# Clostridium hathewayi = experiment: Antibacterial activity against Clostridium hathewayi by CLSI M11-A6 agar dilution method; conditions: Hungatella hathewayi
# [7] = test system: Streptococcus intermedius; experiment: Antibacterial activity against Streptococcus intermedius by CLSI M11-A6 agar dilution method
# [Clostridium] innocuum = Antibacterial activity against Clostridium innocuum by CLSI M11-A6 agar dilution method
# Prevotella buccae = experiment: Antibacterial activity against Prevotella buccae by CLSI M11-A6 agar dilution method; conditions: Segatella buccae
# Bifidobacterium dentium = experiment: Antibacterial activity against Bifidobacterium dentium by CLSI M11-A6 agar dilution method
# Parabacteroides merdae = experiment: Antibacterial activity against Parabacteroides merdae by CLSI M11-A6 agar dilution method
# Actinomyces naeslundii = experiment: Antibacterial activity against Actinomyces naeslundii by CLSI M11-A6 agar dilution method
# Holdemania filiformis = experiment: Antibacterial activity against Holdemania filiformis by CLSI M11-A6 agar dilution method
# [8] = test system: Streptococcus constellatus; experiment: Antibacterial activity against Streptococcus constellatus by CLSI M11-A6 agar dilution method
# Hoylesella loescheii = experiment: Antibacterial activity against Prevotella loescheii by CLSI M11-A6 agar dilution method
# Prevotella intermedia = experiment: Antibacterial activity against Prevotella intermedia by CLSI M11-A6 agar dilution method
# Clostridium subterminale = experiment: Antibacterial activity against Clostridium subterminale by CLSI M11-A6 agar dilution method
# [9] = test system: Clostridium celerecrescens; experiment: Antibacterial activity against Clostridium celerecrescens by CLSI M11-A6 agar dilution method; conditions: Lacrimispora celerecrescens
# Clostridium sp. = experiment: Antibacterial activity against Clostridium sp. by CLSI M11-A6 agar dilution method
# Bacteroides ovatus = experiment: Antibacterial activity against Bacteroides ovatus by CLSI M11-A6 agar dilution method
# [10] = test system: Paraclostridium bifermentans; experiment: Antibacterial activity against Clostridium bifermentans by CLSI M11-A6 agar dilution method
# Clostridium perfringens = experiment: Antibacterial activity against Clostridium perfringens by CLSI M11-A6 agar dilution method
# Fusobacterium varium = experiment: Antibacterial activity against Fusobacterium varium by CLSI M11-A6 agar dilution method
# Clostridium glycolicum = experiment: Antibacterial activity against Clostridium glycolicum by CLSI M11-A6 agar dilution method; conditions: Terrisporobacter glycolicus
# [11] = test system: Parabacteroides distasonis; experiment: Antibacterial activity against Parabacteroides distasonis by CLSI M11-A6 agar dilution method
# [12] = test system: Bacteroides thetaiotaomicron; experiment: Antibacterial activity against Bacteroides thetaiotaomicron by CLSI M11-A6 agar dilution method
smiles,measurement,setting,value
CCCCCCCCCC(=O)N[C@@H](Cc1c[nH]c2ccccc12)C(=O)N[C@H](CC(N)=O)C(=O)N[C@@H](CC(=O)O)C(=O)N[C@@H]1C(=O)NCC(=O)N[C@@H](CCCN)C(=O)N[C@@H](CC(=O)O)C(=O)N[C@H](C)C(=O)N[C@@H](CC(=O)O)C(=O)NCC(=O)N[C@H](CO)C(=O)N[C@@H]([C@H](C)CC(=O)O)C(=O)N[C@@H](CC(=O)c2ccccc2N)C(=O)O[C@@H]1C,MIC,Hoylesella oralis,> 128 µg/mL
same,MIC50,Hoylesella oralis,> 128 µg/mL
same,MIC90,Hoylesella oralis,> 128 µg/mL
same,MIC50,[1],1 µg/mL
same,MIC90,[1],4 µg/mL
same,MIC50,Clostridium sporogenes,1 µg/mL
same,MIC90,Clostridium sporogenes,8 µg/mL
same,MIC50,[2],1 µg/mL
same,MIC90,[2],32 µg/mL
same,MIC,[3],> 128 µg/mL
same,MIC50,[3],> 128 µg/mL
same,MIC90,[3],> 128 µg/mL
same,MIC50,Blautia luti,1 µg/mL
same,MIC90,Blautia luti,2 µg/mL
same,MIC,Prevotella oris,> 128 µg/mL
same,MIC50,Prevotella oris,> 128 µg/mL
same,MIC90,Prevotella oris,> 128 µg/mL
same,MIC,Prevotella bivia,> 128 µg/mL
same,MIC50,Prevotella bivia,> 128 µg/mL
same,MIC90,Prevotella bivia,> 128 µg/mL
same,MIC50,Blautia producta,1 µg/mL
same,MIC90,Blautia producta,2 µg/mL
same,MIC,Bacteroides fragilis,> 128 µg/mL
same,MIC50,Bacteroides fragilis,> 128 µg/mL
same,MIC90,Bacteroides fragilis,> 128 µg/mL
same,MIC50,Anaerococcus prevotii,1 µg/mL
same,MIC90,Anaerococcus prevotii,4 µg/mL
same,MIC50,Clostridium disporicum,1 µg/mL
same,MIC90,Clostridium disporicum,8 µg/mL
same,MIC50,[4],1 µg/mL
same,MIC90,[4],8 µg/mL
same,MIC50,[5],1 µg/mL
same,MIC90,[5],4 µg/mL
same,MIC50,Clostridium spiroforme,1 µg/mL
same,MIC90,Clostridium spiroforme,8 µg/mL
same,MIC50,[6],1 µg/mL
same,MIC90,[6],32 µg/mL
same,MIC50,Eggerthella lenta,1 µg/mL
same,MIC90,Eggerthella lenta,32 µg/mL
same,MIC50,Finegoldia magna,1 µg/mL
same,MIC90,Finegoldia magna,4 µg/mL
same,MIC50,Coriobacterium,1 µg/mL
same,MIC90,Coriobacterium,32 µg/mL
same,MIC50,Ruminococcus gnavus,≤ 0.12 µg/mL
same,MIC90,Ruminococcus gnavus,0.25 µg/mL
same,MIC50,Clostridium tertium,1 µg/mL
same,MIC90,Clostridium tertium,8 µg/mL
same,MIC50,Clostridium bolteae,4 µg/mL
same,MIC90,Clostridium bolteae,4 µg/mL
same,MIC50,Clostridium hathewayi,1 µg/mL
same,MIC90,Clostridium hathewayi,2 µg/mL
same,MIC50,[7],2 µg/mL
same,MIC90,[7],4 µg/mL
same,MIC50,[Clostridium] innocuum,8 µg/mL
same,MIC90,[Clostridium] innocuum,16 µg/mL
same,MIC,Prevotella buccae,> 128 µg/mL
same,MIC50,Prevotella buccae,> 128 µg/mL
same,MIC90,Prevotella buccae,> 128 µg/mL
same,MIC50,Bifidobacterium dentium,1 µg/mL
same,MIC90,Bifidobacterium dentium,32 µg/mL
same,MIC,Parabacteroides merdae,> 128 µg/mL
same,MIC50,Parabacteroides merdae,> 128 µg/mL
same,MIC90,Parabacteroides merdae,> 128 µg/mL
same,MIC50,Actinomyces naeslundii,1 µg/mL
same,MIC90,Actinomyces naeslundii,32 µg/mL
same,MIC50,Holdemania filiformis,1 µg/mL
same,MIC90,Holdemania filiformis,32 µg/mL
same,MIC50,[8],2 µg/mL
same,MIC90,[8],4 µg/mL
same,MIC,Hoylesella loescheii,> 128 µg/mL
same,MIC50,Hoylesella loescheii,> 128 µg/mL
same,MIC90,Hoylesella loescheii,> 128 µg/mL
same,MIC,Prevotella intermedia,> 128 µg/mL
same,MIC50,Prevotella intermedia,> 128 µg/mL
same,MIC90,Prevotella intermedia,> 128 µg/mL
same,MIC50,Clostridium subterminale,1 µg/mL
same,MIC90,Clostridium subterminale,2 µg/mL
same,MIC50,[9],1 µg/mL
same,MIC90,[9],8 µg/mL
same,MIC50,Clostridium sp.,1 µg/mL
same,MIC90,Clostridium sp.,8 µg/mL
same,MIC,Bacteroides ovatus,> 128 µg/mL
same,MIC50,Bacteroides ovatus,> 128 µg/mL
same,MIC90,Bacteroides ovatus,> 128 µg/mL
same,MIC50,[10],1 µg/mL
same,MIC90,[10],8 µg/mL
same,MIC50,Clostridium perfringens,0.5 µg/mL
same,MIC90,Clostridium perfringens,1 µg/mL
same,MIC,Fusobacterium varium,> 128 µg/mL
same,MIC50,Fusobacterium varium,> 128 µg/mL
same,MIC90,Fusobacterium varium,> 128 µg/mL
same,MIC50,Clostridium glycolicum,1 µg/mL
same,MIC90,Clostridium glycolicum,8 µg/mL
same,MIC,[11],> 128 µg/mL
same,MIC50,[11],> 128 µg/mL
same,MIC90,[11],> 128 µg/mL
same,MIC,[12],> 128 µg/mL
same,MIC50,[12],> 128 µg/mL
same,MIC90,[12],> 128 µg/mL
